Assay: recombinant UMI read abundance after kanamycin selection (control-corrected) (log10(CPM+1)); higher = more efficient recombination; extreme values may be limits of the assay; sequences stand for … in AGTGCAGAGAAAATCGGCCAGTTTTCTCTGCCTGCAGTCCGCATGCCGTGGGACCCCTTGGGTTCTAACCTGTTGCCTAGATTTATGCAGCGGACTGCCTTTCTCCCAAAGTGATAAACCGG…AGGTTGGTTTCACT; site = the 11-nt donor
Outline: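 Reported values are log10(CPM+1) from a pooled Escherichia coli screen of donor and donor-binding-loop pairs for the IS621 bridge recombinase. Selection used IPTG (0.07 mM) plus kanamycin, against unselected plating, each in two replicates. Recombinant UMIs were amplified across the donor–target junction, sequenced, converted to CPM, averaged over replicates and scaled by control-derived factors.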
With “CCGTCAGCATGGACCGGTTTTCCCGGTAATCCGTATTTGTG (site CCGTTAGCTCA)” the “recombinant UMI read abundance (log10)” value was 0.00541.
For “CCGTCATCATGGACCGGTTTTCCCGGTAATCCGTATTTGCT (site CCGTCATCTAG)”, the “recombinant UMI read abundance (log10)” value was 0.
With “CCGTCATCATGGACCGGTTTTCCCGGTAATCCGTATTTGCT (site CGATCATCTAG)” the “recombinant UMI read abundance (log10)” value was 0.00968.
In the case of “CCGTCGCCATGGACCGGTTTTCCCGGTAATCCGTATTTGAT (site CCGTCGCCTAT)”, the “recombinant UMI read abundance (log10)” value is reported as 0.00407.
With “CCGTCGGCATGGACCGGTTTTCCCGGTAATCCGTATTTGTG (site CCGTCGGCTCA)” the “recombinant UMI read abundance (log10)” value was 0.0197.
With “CCGTGAGCATGGACCGGTTTTCCCGGTAATCCGTATTTGTG (site CCGTAAGCTCA)” the “recombinant UMI read abundance (log10)” value was 0.0763.
In the case of “CCGTGAGCATGGACCGGTTTTCCCGGTAATCCGTATTTGTG (site CCGTCAGCTCA)”, the “recombinant UMI read abundance (log10)” value is reported as 0.
With “CCGTGAGCATGGACCGGTTTTCCCGGTAATCCGTATTTGTG (site CCGTGAGCTCA)” the “recombinant UMI read abundance (log10)” value was 0.568.
In the case of “CCGTGAGCATGGACCGGTTTTCCCGGTAATCCGTATTTGTG (site CCGTTAGCTCA)”, the “recombinant UMI read abundance (log10)” value is reported as 0.00536.
With “CCGTTAGCATGGACCGGTTTTCCCGGTAATCCGTATTTGTG (site ACGTTAGCTCA)” the “recombinant UMI read abundance (log10)” value was 0.0114.
With “CCGTTAGCATGGACCGGTTTTCCCGGTAATCCGTATTTGTG (site CAGTTAGCTCA)” the “recombinant UMI read abundance (log10)” value was 0.00951.
With “CCGTTAGCATGGACCGGTTTTCCCGGTAATCCGTATTTGTG (site CCATTAGCTCA)” the “recombinant UMI read abundance (log10)” value was 0.434.
With “CCGTTAGCATGGACCGGTTTTCCCGGTAATCCGTATTTGTG (site CCCTTAGCTCA)” the “recombinant UMI read abundance (log10)” value was 0.0161.
With “CCGTTAGCATGGACCGGTTTTCCCGGTAATCCGTATTTGTG (site CCGATAGCTCA)” the “recombinant UMI read abundance (log10)” value was 0.0175.
For “CCGTTAGCATGGACCGGTTTTCCCGGTAATCCGTATTTGTG (site CCGCTAGCTCA)”, the “recombinant UMI read abundance (log10)” value was 0.00432.
For “CCGTTAGCATGGACCGGTTTTCCCGGTAATCCGTATTTGTG (site CCGGTAGCTCA)”, the “recombinant UMI read abundance (log10)” value was 0.014.
With “CCGTTAGCATGGACCGGTTTTCCCGGTAATCCGTATTTGTG (site CCGTAAGCTCA)” the “recombinant UMI read abundance (log10)” value was 0.00568.
For “CCGTTAGCATGGACCGGTTTTCCCGGTAATCCGTATTTGTG (site CCGTCAGCTCA)”, the “recombinant UMI read abundance (log10)” value was 0.0147.
For “CCGTTAGCATGGACCGGTTTTCCCGGTAATCCGTATTTGTG (site CCGTGAGCTCA)”, the “recombinant UMI read abundance (log10)” value was 0.0389.
With “CCGTTAGCATGGACCGGTTTTCCCGGTAATCCGTATTTGTG (site CCGTTAACTCA)” the “recombinant UMI read abundance (log10)” value was 0.0199.
For “CCGTTAGCATGGACCGGTTTTCCCGGTAATCCGTATTTGTG (site CCGTTACCTCA)”, the “recombinant UMI read abundance (log10)” value was 0.
For “CCGTTAGCATGGACCGGTTTTCCCGGTAATCCGTATTTGTG (site CCGTTAGCTAA)”, the “recombinant UMI read abundance (log10)” value was 0.0124.
With “CCGTTAGCATGGACCGGTTTTCCCGGTAATCCGTATTTGTG (site CCGTTAGCTCA)” the “recombinant UMI read abundance (log10)” value was 0.386.
With “CCGTTAGCATGGACCGGTTTTCCCGGTAATCCGTATTTGTG (site CCGTTAGCTCC)” the “recombinant UMI read abundance (log10)” value was 0.0262.
In the case of “CCGTTAGCATGGACCGGTTTTCCCGGTAATCCGTATTTGTG (site CCGTTAGCTCG)”, the “recombinant UMI read abundance (log10)” value is reported as 0.
With “CCGTTAGCATGGACCGGTTTTCCCGGTAATCCGTATTTGTG (site CCGTTAGCTCT)” the “recombinant UMI read abundance (log10)” value was 0.
For “CCGTTAGCATGGACCGGTTTTCCCGGTAATCCGTATTTGTG (site CCGTTAGCTGA)”, the “recombinant UMI read abundance (log10)” value was 0.
In the case of “CCGTTAGCATGGACCGGTTTTCCCGGTAATCCGTATTTGTG (site CCGTTAGCTTA)”, the “recombinant UMI read abundance (log10)” value is reported as 0.
With “CCGTTAGCATGGACCGGTTTTCCCGGTAATCCGTATTTGTG (site CCGTTATCTCA)” the “recombinant UMI read abundance (log10)” value was 0.
In the case of “CCGTTAGCATGGACCGGTTTTCCCGGTAATCCGTATTTGTG (site CCGTTCGCTCA)”, the “recombinant UMI read abundance (log10)” value is reported as 0.
With “CCGTTAGCATGGACCGGTTTTCCCGGTAATCCGTATTTGTG (site CCGTTGGCTCA)” the “recombinant UMI read abundance (log10)” value was 0.0165.
For “CCGTTAGCATGGACCGGTTTTCCCGGTAATCCGTATTTGTG (site CCGTTTGCTCA)”, the “recombinant UMI read abundance (log10)” value was 0.00521.
For “CCGTTAGCATGGACCGGTTTTCCCGGTAATCCGTATTTGTG (site CCTTTAGCTCA)”, the “recombinant UMI read abundance (log10)” value was 0.015.
For “CCGTTAGCATGGACCGGTTTTCCCGGTAATCCGTATTTGTG (site CGGTTAGCTCA)”, the “recombinant UMI read abundance (log10)” value was 0.00954.
For “CCGTTAGCATGGACCGGTTTTCCCGGTAATCCGTATTTGTG (site CTGTTAGCTCA)”, the “recombinant UMI read abundance (log10)” value was 0.164.
In the case of “CCGTTAGCATGGACCGGTTTTCCCGGTAATCCGTATTTGTG (site GCGTTAGCTCA)”, the “recombinant UMI read abundance (log10)” value is reported as 0.
In the case of “CCGTTAGCATGGACCGGTTTTCCCGGTAATCCGTATTTGTG (site TCGTTAGCTCA)”, the “recombinant UMI read abundance (log10)” value is reported as 0.00762.
With “CCGTTCGCATGGACCGGTTTTCCCGGTAATCCGTATTTGTA (site CCGTTCGCTTA)” the “recombinant UMI read abundance (log10)” value was 0.827.
In the case of “CCGTTCTCATGGACCGGTTTTCCCGGTAATCCGTATTTGGG (site CCATTCTCTCC)”, the “recombinant UMI read abundance (log10)” value is reported as 0.00249.
With “CCGTTCTCATGGACCGGTTTTCCCGGTAATCCGTATTTGGG (site CCCTTCTCTCC)” the “recombinant UMI read abundance (log10)” value was 0.
With “CCGTTCTCATGGACCGGTTTTCCCGGTAATCCGTATTTGGG (site CCGTTCTCTCC)” the “recombinant UMI read abundance (log10)” value was 0.
In the case of “CCGTTCTCATGGACCGGTTTTCCCGGTAATCCGTATTTGGG (site CCTTTCTCTCC)”, the “recombinant UMI read abundance (log10)” value is reported as 0.
For “CCGTTGACATGGACCGGTTTTCCCGGTAATCCGTATTTGCT (site CCGTTAACTAG)”, the “recombinant UMI read abundance (log10)” value was 0.
In the case of “CCGTTGACATGGACCGGTTTTCCCGGTAATCCGTATTTGCT (site CCGTTCACTAG)”, the “recombinant UMI read abundance (log10)” value is reported as 0.
For “CCGTTGACATGGACCGGTTTTCCCGGTAATCCGTATTTGCT (site CCGTTGACTAG)”, the “recombinant UMI read abundance (log10)” value was 1.05.
With “CCGTTGACATGGACCGGTTTTCCCGGTAATCCGTATTTGCT (site CCGTTTACTAG)” the “recombinant UMI read abundance (log10)” value was 0.
In the case of “CCGTTTACATGGACCGGTTTTCCCGGTAATCCGTATTTGCC (site CCGTTTACTAG)”, the “recombinant UMI read abundance (log10)” value is reported as 0.
In the case of “CCGTTTACATGGACCGGTTTTCCCGGTAATCCGTATTTGCC (site CCGTTTACTCG)”, the “recombinant UMI read abundance (log10)” value is reported as 0.
With “CCGTTTACATGGACCGGTTTTCCCGGTAATCCGTATTTGCC (site CCGTTTACTGG)” the “recombinant UMI read abundance (log10)” value was 0.
With “CCGTTTACATGGACCGGTTTTCCCGGTAATCCGTATTTGCC (site CCGTTTACTTG)” the “recombinant UMI read abundance (log10)” value was 0.
In the case of “CCGTTTACATGGACCGGTTTTCCCGGTAATCCGTATTTGTT (site CCGTTTACTAA)”, the “recombinant UMI read abundance (log10)” value is reported as 0.175.
With “CCGTTTACATGGACCGGTTTTCCCGGTAATCCGTATTTGTT (site CCGTTTACTAC)” the “recombinant UMI read abundance (log10)” value was 0.
In the case of “CCGTTTACATGGACCGGTTTTCCCGGTAATCCGTATTTGTT (site CCGTTTACTAG)”, the “recombinant UMI read abundance (log10)” value is reported as 0.
With “CCGTTTACATGGACCGGTTTTCCCGGTAATCCGTATTTGTT (site CCGTTTACTAT)” the “recombinant UMI read abundance (log10)” value was 0.
For “CCGTTTGCATGGACCGGTTTTCCCGGTAATCCGTATTTGCT (site CCGTTTACTAG)”, the “recombinant UMI read abundance (log10)” value was 0.
For “CCGTTTGCATGGACCGGTTTTCCCGGTAATCCGTATTTGCT (site CCGTTTCCTAG)”, the “recombinant UMI read abundance (log10)” value was 0.
For “CCGTTTGCATGGACCGGTTTTCCCGGTAATCCGTATTTGCT (site CCGTTTGCTAG)”, the “recombinant UMI read abundance (log10)” value was 0.
With “CCGTTTGCATGGACCGGTTTTCCCGGTAATCCGTATTTGCT (site CCGTTTTCTAG)” the “recombinant UMI read abundance (log10)” value was 0.
In the case of “CCGTTTGCATGGACCGGTTTTCCCGGTAATCCGTATTTGGT (site CCGTTTGCTAC)”, the “recombinant UMI read abundance (log10)” value is reported as 0.48.
For “CCTAAACCATGGACCGGTTTTCCCGGTAATCCGTATTTGAT (site CCTAAAACTAT)”, the “recombinant UMI read abundance (log10)” value was 0.
In the case of “CCTAAACCATGGACCGGTTTTCCCGGTAATCCGTATTTGAT (site CCTAAACCTAT)”, the “recombinant UMI read abundance (log10)” value is reported as 0.
For “CCTAAACCATGGACCGGTTTTCCCGGTAATCCGTATTTGAT (site CCTAAAGCTAT)”, the “recombinant UMI read abundance (log10)” value was 0.
For “CCTAAACCATGGACCGGTTTTCCCGGTAATCCGTATTTGAT (site CCTAAATCTAT)”, the “recombinant UMI read abundance (log10)” value was 0.
In the case of “CCTAAAGCATGGACCGGTTTTCCCGGTAATCCGTATTTGAC (site CCTAAAGCTAT)”, the “recombinant UMI read abundance (log10)” value is reported as 0.
For “CCTAAAGCATGGACCGGTTTTCCCGGTAATCCGTATTTGAC (site CCTAAAGCTCT)”, the “recombinant UMI read abundance (log10)” value was 0.00302.
With “CCTAAAGCATGGACCGGTTTTCCCGGTAATCCGTATTTGAC (site CCTAAAGCTGT)” the “recombinant UMI read abundance (log10)” value was 0.
For “CCTAAAGCATGGACCGGTTTTCCCGGTAATCCGTATTTGAC (site CCTAAAGCTTT)”, the “recombinant UMI read abundance (log10)” value was 0.0124.
In the case of “CCTAAATCATGGACCGGTTTTCCCGGTAATCCGTATTTGAT (site CCTAAAACTAT)”, the “recombinant UMI read abundance (log10)” value is reported as 0.
In the case of “CCTAAATCATGGACCGGTTTTCCCGGTAATCCGTATTTGAT (site CCTAAACCTAT)”, the “recombinant UMI read abundance (log10)” value is reported as 0.
In the case of “CCTAAATCATGGACCGGTTTTCCCGGTAATCCGTATTTGAT (site CCTAAAGCTAT)”, the “recombinant UMI read abundance (log10)” value is reported as 0.
For “CCTAAATCATGGACCGGTTTTCCCGGTAATCCGTATTTGAT (site CCTAAATCTAT)”, the “recombinant UMI read abundance (log10)” value was 0.00669.
In the case of “CCTAACCCATGGACCGGTTTTCCCGGTAATCCGTATTTGAG (site CCTAACCCTCT)”, the “recombinant UMI read abundance (log10)” value is reported as 0.00788.
For “CCTAACGCATGGACCGGTTTTCCCGGTAATCCGTATTTGCT (site CCTAACGCTAG)”, the “recombinant UMI read abundance (log10)” value was 0.
With “CCTAATACATGGACCGGTTTTCCCGGTAATCCGTATTTGCC (site CCTAATACTGA)” the “recombinant UMI read abundance (log10)” value was 0.
For “CCTAATACATGGACCGGTTTTCCCGGTAATCCGTATTTGCC (site CCTAATACTGC)”, the “recombinant UMI read abundance (log10)” value was 0.
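Note: IS621 bridge recombinase in Escherichia coli cells against a fixed T5 target plasmid.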
